Assay results published in patent US11639348B2, “Compositions and methods for neuraminidase detection and quantification” (priority 2018, dated 2023).

System: A/Brisbane/59/2007 H1N1 Oseltamivir-Resistant NA
Assay type: biochemical, influenza A/Brisbane/59/2007 H1N1 Oseltamivir-Resistant
Conditions: pH 7.6

`CC(=O)NC1C(NC(=N)N)C(F)C(Oc2c(F)cc3c(C)cc(=O)oc3c2F)(C(=O)O)OC1[C@H](O)[C@H](O)CO` (stereo partly drawn) [compound 3, 5-Acetamido-4-guanidine-3-fluoro-3,4,5-trideoxy-2α-(4-methyl-6,8-difluoromethylumbelliferyl)-D-glycero-D-galactononulopyranosylnoic acid] was tested, and the Km was 41.6 µM and the kcat was 35.7 s⁻¹.
